{
  "source": "patent US9387221B2",
  "about": "“SDF-1 binding nucleic acids and the use thereof in cancer treatment” (NOXXON Pharma AG, priority 2010, dated 2016)",
  "key": {"SDF-1 [1]": {"target": "T1, SDF-1 (Homo sapiens, UniProt P48061)", "experiment": "Inhibition of SDF-1-induced chemotaxis, U937 cells", "type": "cell-based", "settings": "3 nM human SDF-1", "procedure": "(§1) The human T cell leukemia cell line Jurkat, the human leukemic monocyte lymphoma cell line U937, the human pre-B cell leukemia cell line BV-173 and human pre-B ALL cell line Nalm-6 express CXCR4. […] All cells used were obtained from the DSMZ (Braunschweig). All cell lines were cultivated at 37° C. and 5% CO2 in RPMI 1640 medium with Glutamax (Invitrogen, Karlsruhe, Germany) which contains 10% fetal bovine serum, 100 units/ml penicillin and 100 μg/ml streptomycin (Invitrogen, Karlsruhe, Germany). One day before the experiment, cells were seeded in a new T175 flask with a density of 0.3×10^6/ml (Jurkat, U937, BV-173) or 0.75×10^6/ml (Nalm-6), respectively.\n(§2) For the experiment, cells were centrifuged (5 min at 300 g), resuspended, counted and washed once with 15 ml HBH (Hanks balanced salt solution containing 1 mg/ml bovine serum albumin and 20 mM HEPES; Invitrogen, Karlsruhe, Germany). Then the cells were resuspended at 1.33×10^6/ml (Jurkat, U937, BV-173) or 2.67×10^6/ml (Nalm-6), respectively. […]\n(§3) For evaluation, fluorescence values were corrected for background fluorescence (no cells in well). Then the difference between experimental conditions with and without SDF-1 was calculated. The value for the sample without Spiegelmer (SDF-1 only) was set 100% and the values for the samples with Spiegelmer were calculated as percent of this. […]"}, "[2]": {"tested_on": "SDF-1 dose-dependent adhesion of Jurkat cells to fibronectin", "experiment": "Adhesion of Jurkat cells to fibronectin", "type": "cell-based, human", "settings": "SDF-1 plus increasing concentrations of Spiegelmer", "procedure": "The T cell leukemia Jurkat (ACC 282) were purchased from the DSMZ were maintained in RPMI medium 1640 GlutaMAX (Invitrogen) supplemented with 10% FBS (Biochrom) and penicillin-streptomycin. For the adhesion experiments 96-well culture plates were incubated with 10 μg/mL human fibronectin (R&D systems) in PBS for 2 hours at 37° C. […] The wells were then washed with RPMI medium. Jurkat cells from logarithmic growth phase were washed with RPMI medium (+0.1% BSA) and incubated with various concentrations of human SDF-1 (R&D systems) and NOX-A12 for 15 minutes at 37° C. NOX-A12 and SDF-1 were preincubated for 30 minutes. lx 105 stimulated Jurkat cells were seeded to the Fibronectin-coated 96-well plates and incubated for 30 minutes. The plates were then washed five times with RPMI medium. Attached cells were quantified by using Cell Titer Glo Reagent (Promega). Therefor, 50 μL RPMI medium was added to each well, followed by 50 μL of Cell Titer Glo Reagent. The plates were mixed for two minutes, followed by incubation at room temperature for 10 minutes. Cell number was quantified by relative luminescence signal."}, "stromal MS-5 cells": {"tested_on": "stromal MS-5 cells", "experiment": "Viability of stromal MS-5 cells in the coculture", "type": "cell-based, murine", "procedure": "The murine stromal cell line MS-5 (ACC 441) was purchased from the DSMZ, the Multiple Myeloma cell line RPMI8226 (CCL-155) was purchased from the ATCC. The Multiple Myeloma cell line RPMI8226 was maintained in RPMI medium 1640 GlutaMAX (Invitrogen) supplemented with 10% FBS (Biochrom) and penicillin-streptomycin, the MS-5 cells were cultured in MEM alpha GlutaMAX (Invitrogen) with 10% FBS and penicillin-streptomycin. For chemosensitization coculture experiments stromal MS-5 cells were seeded the day before onto 24-well plates (the inner eight wells) at a concentration of 8×10^4/mL/well in MEM alpha GlutaMAX medium (+10% FBS) and incubated at 37° C. in 5% CO2. The confluent stromal cell layer was washed and 0.5 mL RPMI medium 1640 (+1% FBS) was added to the wells. SDF-1 binding […] NOX-A12 or revNOX-A12 was subsequently added to the wells to a final concentration of 100 nM and incubated for four hours. 3.5×10^5 RPMI8226 cells in RPMI medium 1640 (+1% FBS) were added to the stromal cell layer. Four hours later, 1 μ[…] (Sigma Aldrich) was added to the cells when indicated. After 40 hours of incubation the cells were collected in 15 mL tubes, first the supernatant was harvested and then the attached cells were trypsinized including MS-5 cells. […] Cell viability and cell number were determined by Flow Cytometry using the Guava EasyCyte 6HT/2L (Millipore)."}, "SDF-1 [3]": {"target": "T1, SDF-1", "experiment": "SDF-1 dependent chemotaxis of primary chronic lymphocytic leukemia cells", "type": "cell-based"}, "SDF-1 [4]": {"target": "T1, SDF-1", "experiment": "Inhibition of SDF-1-induced chemotaxis, BV-173 cells", "type": "cell-based", "settings": "3 nM human SDF-1", "procedure": "as §1, §2, §3"}, "SDF-1 [5]": {"target": "T1, SDF-1", "experiment": "Inhibition of SDF-1-induced chemotaxis, Nalm-6 cells", "type": "cell-based", "settings": "0.3 nM human SDF-1", "procedure": "as §1, §2, §3"}},
  "note": "{PEG40k} = 40 kDa polyethylene glycol",
  "data": [
    {"substance": "5′-40 kDa-PEG-GCGUGGUGUGAUCUAGAUGUAUUGGCUGAUCCUAGUCAGGUACGC (5' {PEG40k}, sugars by position and backbone not given here) [NOX-A12]", "values": [
      {"measurement": "inhibition of SDF-1 induced chemotaxis", "setting": "SDF-1 [1]", "result": "Inhibition"},
      {"measurement": "reversal of SDF-1 effect on adhesion of Jurkat cells to fibronectin", "setting": "[2]", "result": "reverse this effect"},
      {"measurement": "viability of stromal MS-5 cells", "setting": "stromal MS-5 cells", "result": "neither affected"},
      {"measurement": "block of SDF-1 dependent chemotaxis", "setting": "SDF-1 [3]", "result": "effectively blocked"},
      {"measurement": "inhibition of SDF-1 induced chemotaxis", "setting": "SDF-1 [4]", "result": "Inhibition"},
      {"measurement": "inhibition of SDF-1 induced chemotaxis", "setting": "SDF-1 [5]", "result": "Inhibition"}
    ]}
  ]
}
